From PMC3797685, “Enhanced Production, Purification, Characterization and Mechanism of Action of Salivaricin 9 Lantibiotic Produced by Streptococcus salivarius NU10” (PLoS ONE, 2013)
Starred links: 1 amine or outer side, 2 acyl side, 3 side chain; linkers in the order of their positions; H or OH if unused. Positions of bridges follow the written chain, without caps; N, C: chain ends. Non-standard residues stand in square brackets, D forms with d. Residues, ends and D or L forms follow the SMILES beside them. dAbu(3S-yl) = C[C@@H]([C@@H](N[*:1])C(=O)[*:2])[*:3]; Dhb = C/C=C(\N)C(=O)O

Columns and labels:
S. salivarius strain K12 = test: Salivaricin induction assay, strain K12; type: cell-based, Streptococcus salivarius; conditions: 0.05 ml test sample (titre 4 AU/ml) added to washed cells in M17YESUCa, 18 h anaerobic; well diffusion assay, induced vs control tube
Description: (§1) The bacteriocin-inducing activities present in crude extracts of S. salivarius strains NU10, YU10, K12 and in FPLC-purified salivaricin 9 peptide fractions having anti-Micrococcus luteus activity was investigated in this study. The crude extracts of producer cells designated as BLIS-NU10, BLIS-YU10 and BLIS-K12 were isolated by acidic methanol extraction of the producer cells as described previously. These crude BLIS extracts had the potential to contain at least two lantibiotics on the basis of PCR assessment for their content of lantibiotic structural genes. Strains NU10 and YU10 had the structural genes for salivaricin 9 and salivaricin A and strain K12 had salivaricin A and salivaricin B structural genes. […] Colonies from an 18 h culture of each S. salivarius strain NU10, YU10 and K12 grown anaerobically on BACa agar was used to inoculate 10 ml of M17YESUCa broth and incubated again under the same conditions. The cells were then collected by centrifugation at 18000 x g for 5 min and washed three times in saline buffer to reduce the levels of cell surface-associated lantibiotic before suspending in 10 ml of the same buffer. […] Induction of salivaricin 9 or salivaricin A production was recorded as inhibitory zones surrounding samples from the induced tubes but not the control tubes. […]

[1] = test system: Micrococcus luteus ATCC10240; test: Flow cytometry analysis of membrane disruption (propidium iodide); type: cell-based; conditions: PI 25 µM, 30 minutes at 37°C
Description: For membrane integrity assay using the dye propidium iodide (PI), cultures of Micrococcus luteus ATCC10240 were grown over night at 37°C in THB supplemented with 0.5% glucose (THBG) and then diluted with fresh THBG to an OD600 of 0.1. The cells were centrifuged at 4000 x g for 5 minutes at 4°C and washed twice with washing buffer (2 mM HEPES + 2 mM glucose) before re-suspending in the same buffer and adjusting to OD600 0.1. The cells were exposed to salivaricin 9 (12, 20 µg/ml) or nisin (20 µg/ml) (Sigma) and PI (final concentration 25 µM) before incubating for 30 minutes at 37°C. Nuclease-Free Water (Promega, USA) was added instead of antibiotic and served as a negative control. Samples were analyzed using BD FACSCanto^TM II flow cytometer using excitation at 488 nm and with the standard filter setup. Each sample was examined in triplicate and the geometric mean fluorescence intensity (MFI) of gated cell populations was calculated (Figure 9).

[2] = test system: S. salivarius strain YU10; test: Salivaricin induction assay, strain YU10; type: cell-based, Streptococcus salivarius; conditions: 0.05 ml test sample (titre 4 AU/ml) added to washed cells in M17YESUCa, 18 h anaerobic; well diffusion assay, induced vs control tube
Description: as §1

[3] = test system: S. salivarius strain NU10; test: Salivaricin induction assay, strain NU10; type: cell-based, Streptococcus salivarius; conditions: 0.05 ml test sample (titre 4 AU/ml) added to washed cells in M17YESUCa, 18 h anaerobic; well diffusion assay, induced vs control tube
Description: as §1

[4] = test system: Lactococcus lactis strain ATCC11454; test: Induction assay, nisin-producing strain ATCC11454; type: cell-based; conditions: 0.05 ml test sample, 18 h, well diffusion assay
[5] = test system: Actinomyces naeslundii TG2; test: Minimal inhibitory concentration (NCCLS); type: cell-based; parameters: key: ++++: inhibition zone >12 mm; +++: inhibition zone = 10 mm; ++: inhibition zone < 5 mm; -: No inhibition; conditions: pure salivaricin 9, NCCLS method
Description: (§2) An induced culture of S. salivarius NU10 was centrifuged at 8000 x g to pellet the cells. The cell free supernatant (CFS) was filtered through 0.2 µm sterilized cellulose membrane (Millipore) to ensure that all cell debris was removed. The filtered crude bacteriocin preparation was passed through 100 ml XAD-16 particles (Sigma) packed in a glass column. The column was washed with 400 ml of distilled water followed by 200 ml of 70% methanol before the active fraction was eluted using 200 ml of 95% methanol (adjusted to pH 2) at a flow rate of 15 ml/min. The methanol was removed using a rotary evaporator and the resulting peptide preparation was lyophilized and stored at -20°C. The lyophilized peptide pellets were dissolved in 20 mM sodium phosphate pH 5.8 (binding buffer). Then the sample was injected into a fast protein liquid chromatography (FPLC) system (ÄKTA Purifier™) using HiTrap SP FF 5ml strong cation exchanger column (GE Healthcare) equilibrated with the same buffer at a flow rate of 1 ml/min. Then the column was washed with 10X column volume of the binding buffer before salivaricin 9 was eluted using a linear gradient of 0 to 1M NaCl in 20 mM sodium phosphate buffer at pH 5.8 (Figure 4). All fractions were tested for inhibitory activity using Micrococcus luteus as the indicator. MIC values of pure salivaricin 9 against a set of bacterial indicator strains were determined by following the National Committee for Clinical Laboratory Standards (NCCLS) (Table 3).

[6] = test system: Streptococcus mutans GEJ11; test: Minimal inhibitory concentration (NCCLS); type: cell-based; parameters: key: ++++: inhibition zone >12 mm; +++: inhibition zone = 10 mm; ++: inhibition zone < 5 mm; -: No inhibition; conditions: pure salivaricin 9, NCCLS method
Description: as §2

[7] = test system: Staphylococcus aureus RF122; test: Minimal inhibitory concentration (NCCLS); type: cell-based; parameters: key: ++++: inhibition zone >12 mm; +++: inhibition zone = 10 mm; ++: inhibition zone < 5 mm; -: No inhibition; conditions: pure salivaricin 9, NCCLS method
Description: as §2

[8] = test system: Bacillus cereus ATCC14579; test: Minimal inhibitory concentration (NCCLS); type: cell-based; parameters: key: ++++: inhibition zone >12 mm; +++: inhibition zone = 10 mm; ++: inhibition zone < 5 mm; -: No inhibition; conditions: pure salivaricin 9, NCCLS method
Description: as §2

[9] = test system: Haemophilus parainfluenza TONEJ11; test: Minimal inhibitory concentration (NCCLS); type: cell-based; parameters: key: ++++: inhibition zone >12 mm; +++: inhibition zone = 10 mm; ++: inhibition zone < 5 mm; -: No inhibition; conditions: pure salivaricin 9, NCCLS method
Description: as §2

Micrococcus luteus [10] = test: Stability to detergents / chemicals (residual inhibitory activity); type: physicochemical; conditions: two hours at RT, indicator Micrococcus luteus, titre 800 AU/ml
Description: (§3) Heat stability was studied by exposing pure salivaricin 9 to different temperatures for one hour after which the sample was centrifuged and the supernatant tested for inhibitory activity. The stability of the peptide at different pH values was also evaluated and tested for inhibitory activity. Specific enzymatic effects of denaturation on salivaricin 9 were tested using two wells of 6mm diameter each separated by a distance of 4 mm in CAB plates. One well was filled with 50µl of pure salivaricin 9 while the other was filled with 50µl of the tested enzyme. The plate was incubated at 50°C for 2 hours and then incubated at 37°C overnight before seeding the indicator strain onto the agar surface using a cotton swab. Then the plate was re-incubated at 37°C for 18 hours and the zones of inhibitions that appeared indicated residual activity of salivaricin 9 while absence of inhibition zones indicated the denaturation of the antimicrobial peptide by the applied enzymes namely proteinase K, peptidase, lyticase and catalase. The stability of salivaricin 9 to treatment with the chemicals EDTA, SDS, urea, NaCl and β-mercaptoethanol was examined by adding 1% of these chemicals to the bacteriocin followed by incubation for two hours at RT before the samples were centrifuged and the supernatant tested as mentioned above. If the chemical was a solvent such as β-mercaptoethanol, then the solvent was evaporated before testing for antimicrobial activity (Table 4).

Micrococcus luteus [11] = test: pH stability (residual inhibitory activity); type: physicochemical; conditions: for Inhibition zone after pH exposure: indicator Micrococcus luteus, titre 800 AU/ml
Description: as §3

Micrococcus luteus [12] = test: Mode of action, addition to growing culture (OD600); type: cell-based; conditions: added to different growth phases of Micrococcus luteus culture
Description: When added to different growth phases of Micrococcus luteus culture, salivaricin 9 induced cell lysis.
Figure 7 Bactericidal mode of action of salivaricin 9. Salivaricin 9 was added to different phases of bacterial growth. […] The sensitive bacteria Micrococcus luteus lost the ability to grow again after salivaricin 9 was added.

Micrococcus luteus [13] = test: Heat stability (residual inhibitory activity); type: physicochemical; conditions: for Inhibition zone after heat treatment: indicator Micrococcus luteus, titre 800 AU/ml
Description: as §3

Lyticase = test: Enzyme stability (residual inhibitory activity)
Description: (§4) Specific enzymatic effects of denaturation on salivaricin 9 were tested using two wells of 6mm diameter each separated by a distance of 4 mm in CAB plates. One well was filled with 50µl of pure salivaricin 9 while the other was filled with 50µl of the tested enzyme. The plate was incubated at 50°C for 2 hours and then incubated at 37°C overnight before seeding the indicator strain onto the agar surface using a cotton swab. Then the plate was re-incubated at 37°C for 18 hours and the zones of inhibitions that appeared indicated residual activity of salivaricin 9 while absence of inhibition zones indicated the denaturation of the antimicrobial peptide by the applied enzymes namely proteinase K, peptidase, lyticase and catalase.

Proteinase K = Proteinase K (Parengyodontium album, UniProt P06873); test: Enzyme stability (residual inhibitory activity)
Description: (§5) Heat stability was studied by exposing pure salivaricin 9 to different temperatures for one hour after which the sample was centrifuged and the supernatant tested for inhibitory activity. The stability of the peptide at different pH values was also evaluated and tested for inhibitory activity. Specific enzymatic effects of denaturation on salivaricin 9 were tested using two wells of 6mm diameter each separated by a distance of 4 mm in CAB plates. One well was filled with 50µl of pure salivaricin 9 while the other was filled with 50µl of the tested enzyme. The plate was incubated at 50°C for 2 hours and then incubated at 37°C overnight before seeding the indicator strain onto the agar surface using a cotton swab. Then the plate was re-incubated at 37°C for 18 hours and the zones of inhibitions that appeared indicated residual activity of salivaricin 9 while absence of inhibition zones indicated the denaturation of the antimicrobial peptide by the applied enzymes namely proteinase K, peptidase, lyticase and catalase. The stability of salivaricin 9 to treatment with the chemicals EDTA, SDS, urea, NaCl and β-mercaptoethanol was examined by adding 1% of these chemicals to the bacteriocin followed by incubation for two hours at RT before the samples were centrifuged and the supernatant tested as mentioned above. […]

Catalase = test: Enzyme stability (residual inhibitory activity)
Description: as §4

[14] = test system: Streptococcus pyogenes ATCC12344; test: Minimal inhibitory concentration (NCCLS); type: cell-based; conditions: pure salivaricin 9, NCCLS method
Description: as §2, with “All fractions were tested for inhibitory activity using Micrococcus luteus as the indicator.” left out

Proteinase = test: Enzyme stability (residual inhibitory activity); type: physicochemical; conditions: Proteinase 1 mg.ml^-1; adjacent wells, 50 µl each; 50°C 2 hours then 37°C overnight; indicator Micrococcus luteus; titre 800 AU/ml
Description: as §4

Chain of Proteinase K (P06873 106-384): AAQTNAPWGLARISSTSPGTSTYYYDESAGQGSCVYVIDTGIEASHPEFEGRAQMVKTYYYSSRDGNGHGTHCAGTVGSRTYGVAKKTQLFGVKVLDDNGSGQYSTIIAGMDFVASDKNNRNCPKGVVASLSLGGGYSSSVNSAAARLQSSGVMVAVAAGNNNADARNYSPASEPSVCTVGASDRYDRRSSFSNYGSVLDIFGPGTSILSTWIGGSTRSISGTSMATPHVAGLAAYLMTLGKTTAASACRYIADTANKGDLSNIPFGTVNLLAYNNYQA
Description for Peptidase: as §5

Nisin: pore forming lantibiotic (Sigma), produced by Lactococcus lactis (ITSISLCTPGCKTGALMGCNMKTATCHCSIHVSK; not fully specified; Lantibiotic nisin-A; UniProt P13068 24-57, looked up) [reference compound]
Preparation induces inhibitor production in K12 (S. salivarius strain K12): No | Propidium iodide uptake, geometric mean fluorescence intensity (MFI) ([1]; 20 µg/ml, triplicate): large increase | Preparation induces inhibitor production in YU10 [2]: No | Preparation induces inhibitor production in NU10 [3]: No | Preparation induces inhibitor production in ATCC11454 [4]: Yes

C/C=C1\NC(=O)[C@H](Cc2c[nH]c3ccccc23)NC(=O)[C@@H]2NC(=O)[C@H](C)NC(=O)[C@H](CC(C)C)NC(=O)[C@H](CC(N)=O)NC(=O)[C@@H]3CS[C@@H](C)[C@@H](NC(=O)[C@H](CC(C)C)NC(=O)[C@@H](NC(=O)[C@@H](NC(=O)CNC(=O)[C@H](CC(N)=O)NC(=O)CN)C(C)C)C(C)C)C(=O)N[C@@H](CC(C)C)C(=O)N[C@@H](C(=O)N[C@@H](Cc4c[nH]cn4)C(=O)N[C@@H](CCC(=O)O)C(=O)N3)[C@H](C)SC[C@H](NC(=O)[C@H](CCCCN)NC(=O)[C@H](CC(C)C)NC(=O)[C@H](CCCCN)NC(=O)[C@H](CCCCN)NC1=O)C(=O)N[C@H](C(=O)O)CS[C@H]2C [Salivaricin 9] (H-GNGVVL[dAbu(3S-yl)]L[dAbu(3S-yl)]HECNLA[dAbu(3S-yl)]W[Dhb]KKLKCC-OH; thioether 7-12, 9-23, 16-24; N-terminus and C-terminus assumed)
MIC of salivaricin 9 [5]: - | MIC of salivaricin 9 [6]: - | MIC of salivaricin 9 [7]: - | MIC of salivaricin 9 [8]: - | MIC of salivaricin 9 [9]: - | Preparation induces inhibitor production in K12 (S. salivarius strain K12): No | Propidium iodide uptake, geometric mean fluorescence intensity (MFI) ([1]; 4 µg/ml (MIC)): did not show significant increase in the MFI | Propidium iodide uptake, geometric mean fluorescence intensity (MFI) ([1]; 12 µg/ml (3-fold MIC), triplicate): significant MFI increments | Propidium iodide uptake, geometric mean fluorescence intensity (MFI) ([1]; 20 µg/ml, triplicate): significant MFI increments | Inhibition zone after enzyme treatment (Peptidase; Peptidase 1 mg.ml^-1, adjacent wells, 50 µl each, 50°C 2 hours then 37°C overnight, indicator Micrococcus luteus, titre 800 AU/ml): - | Antimicrobial activity after enzyme treatment (in words) (Peptidase; treated with peptidase): lost all antimicrobial activity | Preparation induces inhibitor production in YU10 [2]: Yes | Inhibition zone after detergent / chemical treatment (Micrococcus luteus [10]; EDTA 1% (w/v)): ++++ (inhibition zone >20 mm) | Inhibition zone after detergent / chemical treatment (Micrococcus luteus [10]; NaCl 1% (w/v)): ++++ (inhibition zone >20 mm) | Inhibition zone after detergent / chemical treatment (Micrococcus luteus [10]; SDS 1% (w/v)): ++++ (inhibition zone >20 mm) | Inhibition zone after detergent / chemical treatment (Micrococcus luteus [10]; Tritone X100 1% (w/v)): ++ (inhibition zone < 20 mm) | Inhibition zone after detergent / chemical treatment (Micrococcus luteus [10]; Tween 20 1% (w/v)): ++++ (inhibition zone >20 mm) | Inhibition zone after detergent / chemical treatment (Micrococcus luteus [10]; Tween 80 1% (w/v)): ++++ (inhibition zone >20 mm) | Inhibition zone after detergent / chemical treatment (Micrococcus luteus [10]; Urea 1% (w/v)): ++++ (inhibition zone >20 mm) | Inhibition zone after pH exposure (Micrococcus luteus [11]; pH 2- 7): ++++ (inhibition zone >20 mm) | Inhibition zone after pH exposure (Micrococcus luteus [11]; pH 8-10): +++ (inhibition zone =20 mm) | Inhibition zone after pH exposure (Micrococcus luteus [11]; pH 11-12): - | Antimicrobial activity after pH exposure (in words) (Micrococcus luteus [11]; pH range of 2 to 10): retained | Mode of action (OD600 after addition to culture) (Micrococcus luteus [12]): bactericidal and bacteriolytic | Preparation induces inhibitor production in NU10 [3]: Yes | Inhibition zone after heat treatment (Micrococcus luteus [13]; 4, 20, 30, 37, 40, 50, 60, 70, 80 °C for 1 hour): ++++ (inhibition zone >20 mm) | Inhibition zone after heat treatment (Micrococcus luteus [13]; 90, 100 °C for 30 min): +++ (inhibition zone =20 mm) | Biological stability at high temperature (in words) (Micrococcus luteus [13]; 90-100°C for 30 minutes): retained biological stability | Inhibition zone after heat treatment (Micrococcus luteus [13]; 121 °C for 20 min): - | Inhibition zone after enzyme treatment (Lyticase; Lyticase 1 mg.ml^-1, adjacent wells, 50 µl each, 50°C 2 hours then 37°C overnight, indicator Micrococcus luteus, titre 800 AU/ml): ++++ (inhibition zone >20 mm) | Antimicrobial activity after enzyme treatment (in words) (Lyticase; treated with lyticase): remained active | Inhibition zone after enzyme treatment (Proteinase K; Proteinase K 1 mg.ml^-1, adjacent wells, 50 µl each, 50°C 2 hours then 37°C overnight, indicator Micrococcus luteus, titre 800 AU/ml): - | Antimicrobial activity after enzyme treatment (in words) (Proteinase K; treated with proteinase K): lost all antimicrobial activity | Inhibition zone after enzyme treatment (Catalase; Catalase 1 mg.ml^-1, adjacent wells, 50 µl each, 50°C 2 hours then 37°C overnight, indicator Micrococcus luteus, titre 800 AU/ml): ++++ (inhibition zone >20 mm) | Antimicrobial activity after enzyme treatment (in words) (Catalase; treated with catalase): remained active | MIC of salivaricin 9 [14]: 32 µg/mL | Preparation induces inhibitor production in ATCC11454 [4]: No | Inhibition zone after enzyme treatment (Proteinase): -
